Key:
chickweed = test: Test D postemergence; assay type: in vivo, Stellaria media; conditions: scale 0 to 100
Excerpt: (§1) Seeds of plant species selected from bluegrass (annual bluegrass, Poa annua), blackgrass (Alopecurus myosuroides), canarygrass (Phalaris minor), chickweed (common chickweed, Stellaria media), galium (catchweed bedstraw, Galium aparine), bromegrass, down (downy bromegrass, Bromus tectorum), Russian thistle (Salsola kali), field poppy (Papaver rhoeas), field violet (Viola arvensis), foxtail, green (green foxtail, Setaria viridis), deadnettle (henbit deadnettle, Lamium amplexicaule), ryegrass, Ital. (Italian ryegrass, Lolium multiflorum), kochia (Kochia scoparia), lambsquarters (Chenopodium album), oilseed rape (Brassica napus), pigweed (Amaranthus retroflexus), chamomile (scentless chamomile, Matricaria inodora), speedwell (bird's-eye speedwell, Veronica persica), barley, spring (spring barley, Hordeum vulgare), wheat, spring (spring wheat, Triticum aestivum), buckwheat, wild (wild buckwheat, Polygonum convolvulus), wild mustard (Sinapis arvensis), oat, wild (wild oat, Avena fatua), radish, wild (wild radish, Raphanus raphanistrum), […]), barley, winter (winter barley, Hordeum vulgare), and wheat, winter (winter wheat, Triticum aestivum) were planted into a silt loam soil and treated preemergence with test chemicals formulated in a non-phytotoxic solvent mixture which included a surfactant. At the same time, these species were planted in pots containing Sunshine Redi-Earth® planting medium comprising spaghnum peat moss, vermiculite, starter nutrients and dolomitic limestone and treated with postemergence applications of the test chemicals formulated in the same manner. Plants ranged in height from 2 to 18 cm (1- to 4-leaf stage). Treated plants and controls were maintained in a controlled growth environment for 14 to 21 d after which time all species were compared to controls and visually evaluated. […] A dash (-) response means no test result.

radish, wild = test: Test D preemergence; assay type: in vivo, Raphanus raphanistrum; conditions: scale 0 to 100
Excerpt: as §1

field poppy = test: Test D preemergence; assay type: in vivo, Papaver rhoeas; conditions: for Plant response rating: Field Poppy: scale 0 to 100
Excerpt: as §1

ryegrass, Ital. = test: Test D preemergence; assay type: in vivo, Lolium multiflorum; conditions: for Plant response rating: Ryegrass, Ital.: scale 0 to 100
Excerpt: as §1

chamomile = test: Test D preemergence; assay type: in vivo, Matricaria inodora; conditions: for Plant response rating: Chamomile: scale 0 to 100
Excerpt: as §1

wheat, spring = test: Test D preemergence; assay type: in vivo, Triticum aestivum; conditions: for Plant response rating: Wheat, Spring: scale 0 to 100
Excerpt: as §1

wheat, winter = test: Test D preemergence; assay type: in vivo, Triticum aestivum; conditions: for Plant response rating: Wheat, Winter: scale 0 to 100
Excerpt: as §1

oat, wild = test: Test D preemergence; assay type: in vivo, Avena fatua; conditions: for Plant response rating: Oat, Wild: scale 0 to 100
Excerpt: as §1

field violet = test: Test D preemergence; assay type: in vivo, Viola arvensis; conditions: for Plant response rating: Field Violet: scale 0 to 100
Excerpt: as §1

wheat (winter wheat) = test: Test C preemergence; assay type: in vivo, Triticum aestivum; conditions: for Wheat plant response rating (0 to 100): Preemergence, visual rating after 13 to 15 d; for Plant response rating (scale of 0 to 100 where 0 is no effect and 100 is complete control): Wheat, preemergence, 250 g ai/ha
Excerpt: Seeds of plant species selected from blackgrass (Alopecurus myosuroides), ryegrass, Italian (Italian ryegrass, Lolium multiflorum), wheat (winter wheat, Triticum aestivum), galium (catchweed bedstraw, Galium aparine), corn (Zea mays), crabgrass, large (large crabgrass, Digitaria sanguinalis), foxtail, giant, (giant foxtail, Setaria faberii), johnsongrass (Sorghum halepense), lambsquarters (Chenopodium album), morningglory (Ipomoea coccinea), nutsedge, yellow (yellow nutsedge, Cyperus esculentus), pigweed (Amaranthus retroflexus), ragweed (common ragweed, Ambrosia elatior), soybean (Glycine max), barnyardgrass (Echinochloa crus-galli), oilseed rape (Brassica napus), waterhemp (common waterhemp, Amaranthus rudis), and velvetleaf (Abutilon theophrasti) were planted into a blend of loam soil and sand and treated preemergence with test chemicals formulated in a non-phytotoxic solvent mixture which included a surfactant. At the same time, plants selected from these crop and weed species and also chickweed (common chickweed, Stellaria media), oat, wild (wild oat, Avena fatua), and kochia (Kochia scoparia), were planted in pots containing Sunshine Redi-Earth® planting medium comprising spaghnum peat moss, vermiculite, starter nutrients and dolomitic limestone and treated with postemergence applications of test chemicals formulated in the same manner. Plants ranged in height from 2 to 18 cm (1- to 4-leaf stage) for postemergence treatments. […] A dash (-) response means no test result.

kochia = test: Test A postemergence; assay type: in vivo, Kochia scoparia; conditions: 0 to 100 scale (0 no effect, 100 complete control), approx. 10 d
Excerpt: Seeds of plant species selected from barnyardgrass (Echinochloa crus-galli), crabgrass, large (large crabgrass, Digitaria sanguinalis), kochia (Kochia scoparia), ragweed (common ragweed, Ambrosia elatior), foxtail, giant (giant foxtail, Setaria faberii), morningglory (Ipomoea spp.), pigweed (Amaranthus retroflexus), velvetleaf (Abutilon theophrasti), ryegrass, Italian (Italian ryegrass, Lolium multiflorum), wheat (Triticum aestivum), and corn (Zea mays) were planted into a blend of loam soil and sand and treated preemergence with a directed soil spray using test chemicals formulated in a non-phytotoxic solvent mixture which included a surfactant.
At the same time, plants selected from these crop and weed species and also blackgrass (Alopecurus myosuroides), and galium (catchweed bedstraw, Galium aparine), were planted in pots containing the same blend of loam soil and sand and treated with postemergence applications of test chemicals formulated in the same manner. Plants ranged in height from 2 to 10 cm and were in the one- to two-leaf stage for the postemergence treatment. Treated plants and untreated controls were maintained in a greenhouse for approximately 10 d, after which time all treated plants were compared to untreated controls and visually evaluated for injury. Plant response ratings, summarized in Table A, are based on a 0 to 100 scale where 0 is no effect and 100 is complete control. A dash (-) response means no test result.

[1] = 16 g ai/ha, 0 is no effect, 100 is complete control

Compound | Plant response rating: Chickweed (chickweed; 31 g ai/ha) | Plant response rating: Chickweed (chickweed; 62 g ai/ha) | Plant response rating: Chickweed (chickweed; 125 g ai/ha) | Plant response rating: Radish, Wild (radish, wild; 62 g ai/ha) | Plant response rating: Radish, Wild (radish, wild; 125 g ai/ha) | Plant response rating: Field Poppy (field poppy; 62 g ai/ha) | Plant response rating: Field Poppy (field poppy; 125 g ai/ha) | Plant response rating: Ryegrass, Ital. (ryegrass, Ital.; 62 g ai/ha) | Plant response rating: Ryegrass, Ital. (ryegrass, Ital.; 125 g ai/ha) | Plant response rating: Chamomile (chamomile; 31 g ai/ha) | Plant response rating: Chamomile (chamomile; 62 g ai/ha) | Plant response rating: Chamomile (chamomile; 125 g ai/ha) | Plant response rating: Wheat, Spring (wheat, spring; 62 g ai/ha) | Plant response rating: Wheat, Spring (wheat, spring; 125 g ai/ha) | Plant response rating: Wheat, Winter (wheat, winter; 62 g ai/ha) | Plant response rating: Wheat, Winter (wheat, winter; 125 g ai/ha) | Wheat plant response rating (0 to 100) (wheat (winter wheat); 31 g ai/ha) | Wheat plant response rating (0 to 100) (wheat (winter wheat); 62 g ai/ha) | Plant response rating (scale of 0 to 100 where 0 is no effect and 100 is complete control) (wheat (winter wheat)) | Plant response rating, Kochia (kochia; 125 g ai/ha) | further results
CCc1nc(-c2ccc(C(F)(F)F)cc2)nn1Cc1ccnc(C(F)(F)F)c1 [Compound 1, 4-[[5-ethyl-3-[4-(trifluoromethyl)phenyl]-1H-1,2,4-triazol-1-yl]methyl]-2-(trifluoromethyl)pyridine] | 75 | 80 | 85 | 100 | 100 | 100 | 100 | 25 | 30 | 0 | 20 | 80 | 0 | 0 | 0 | 0 | 0 | 0 | 5 | – | Plant response rating: Chickweed (chickweed; 250 g ai/ha): 90; Plant response rating: Radish, Wild (radish, wild; 250 g ai/ha): 100; Plant response rating: Field Poppy (field poppy; 250 g ai/ha): 100; Plant response rating: Ryegrass, Ital. (ryegrass, Ital.; 250 g ai/ha): 35; Plant response rating: Chamomile (chamomile; 250 g ai/ha): 100; Plant response rating: Wheat, Spring (wheat, spring; 250 g ai/ha): 5; Plant response rating: Wheat, Winter (wheat, winter; 250 g ai/ha): 0; Plant response rating: Oat, Wild (oat, wild; 62 g ai/ha): 0; Plant response rating: Oat, Wild (oat, wild; 125 g ai/ha): 15; Plant response rating: Oat, Wild (oat, wild; 250 g ai/ha): 45; Plant response rating: Field Violet (field violet; 62 g ai/ha): 95; Plant response rating: Field Violet (field violet; 125 g ai/ha): 100; Plant response rating: Field Violet (field violet; 250 g ai/ha): 100
CCCc1nc(-c2ccc(F)cc2)nn1Cc1ccnc(C(F)(F)F)c1 [Compound 6, 4-[[3-(4-fluorophenyl)-5-propyl-1H-1,2,4-triazol-1-yl]methyl]-2-(trifluoromethyl)pyridine] | – | – | – | – | – | – | – | – | – | – | – | – | – | – | – | – | 0 | 10 | 60 | – | –
CCOc1nc(-c2ccc(F)cc2)nn1Cc1ccnc(C(F)(F)F)c1 [Compound 8, 4-[[5-ethoxy-3-(4-fluorophenyl)-1H-1,2,4-triazol-1-yl]methyl]-2-(trifluoromethyl)pyridine] | 80 | 85 | 85 | 60 | 100 | 100 | 100 | 40 | 95 | 10 | 30 | 100 | 15 | 35 | 25 | 40 | 35 | 45 | 80 | – | Plant response rating: Chickweed (chickweed; 250 g ai/ha): 90; Plant response rating: Radish, Wild (radish, wild; 250 g ai/ha): 100; Plant response rating: Field Poppy (field poppy; 250 g ai/ha): 100; Plant response rating: Ryegrass, Ital. (ryegrass, Ital.; 250 g ai/ha): 100; Plant response rating: Chamomile (chamomile; 250 g ai/ha): 100; Plant response rating: Wheat, Spring (wheat, spring; 250 g ai/ha): 70; Plant response rating: Wheat, Winter (wheat, winter; 250 g ai/ha): 65; Plant response rating: Oat, Wild (oat, wild; 62 g ai/ha): 40; Plant response rating: Oat, Wild (oat, wild; 125 g ai/ha): 70; Plant response rating: Oat, Wild (oat, wild; 250 g ai/ha): 80; Plant response rating: Field Violet (field violet; 62 g ai/ha): 100; Plant response rating: Field Violet (field violet; 125 g ai/ha): 100; Plant response rating: Field Violet (field violet; 250 g ai/ha): 100
COc1nc(-c2ccc(F)cc2)nn1Cc1ccnc(C(F)(F)F)c1 [Compound 9, 4-[[3-(4-fluorophenyl)-5-methoxy-1H-1,2,4-triazol-1-yl]methyl]-2-(trifluoromethyl)pyridine] | – | – | – | – | – | – | – | – | – | – | – | – | – | – | – | – | 0 | 5 | 25 | – | –
COc1nc(-c2ccc(C(F)(F)F)cc2)nn1Cc1ccnc(C(F)(F)F)c1 [Compound 25] | – | – | – | – | – | – | – | – | – | – | – | – | – | – | – | – | – | – | – | 90 | Plant response rating, Kochia (kochia; 31 g ai/ha): 90
CCOc1nc(-c2ccc(Cl)cc2)nn1Cc1ccnc(C(F)(F)F)c1 [Compound 26] | – | – | – | – | – | – | – | – | – | – | – | – | – | – | – | – | – | – | – | 90 | Plant response rating, Kochia (kochia; 31 g ai/ha): 80
COc1nc(-c2ccc(Cl)cc2)nn1Cc1ccnc(C(F)(F)F)c1 [Compound 28] | 70 | 70 | 90 | 60 | 80 | 100 | 100 | 25 | 55 | 20 | 75 | 95 | 20 | 25 | 25 | 20 | – | – | – | 90 | Plant response rating: Chickweed (chickweed; 16 g ai/ha): 65; Plant response rating (0 to 100), Field Poppy (field poppy; [1]): 70; Plant response rating (0 to 100), Ryegrass, Ital. (ryegrass, Ital.; [1]): 25; Plant response rating (0 to 100), Chamomile (chamomile; [1]): 0; Plant response rating (0 to 100), Wheat, Spring (wheat, spring; [1]): 10; Plant response rating (0 to 100), Wheat, Winter (wheat, winter; [1]): 15; Plant response rating (0 to 100), Oat, Wild (oat, wild; [1]): 35; Plant response rating: Oat, Wild (oat, wild; 62 g ai/ha): 30; Plant response rating: Oat, Wild (oat, wild; 125 g ai/ha): 35; Plant response rating (0 to 100), Field Violet (field violet; [1]): 65; Plant response rating: Field Violet (field violet; 62 g ai/ha): 95; Plant response rating: Field Violet (field violet; 125 g ai/ha): 100; Plant response rating, Kochia (kochia; 500 g ai/ha): 90
COc1nc(-c2ccccc2)nn1Cc1ccnc(C(F)(F)F)c1 [Compound 32] | – | – | – | – | – | – | – | – | – | – | – | – | – | – | – | – | 0 | 0 | 0 | 80 | Plant response rating, Kochia (kochia; 500 g ai/ha): 90
CCCOc1nc(-c2ccccc2)nn1Cc1ccnc(C(F)(F)F)c1 [Compound 33] | – | – | – | – | – | – | – | – | – | – | – | – | – | – | – | – | – | – | – | 90 | Plant response rating, Kochia (kochia; 500 g ai/ha): 90

Source: patent publication US10681909B2, “Herbicidal triazoles” (FMC Corporation, priority 2014, dated 2020)
